{"source": "patent US6071927A", "about": "“Spiro-piperidine derivatives and their use as therapeutic agents” (Merck Sharp & Dohme Ltd., priority 1996, dated 2000)", "tested_on": "NK1 receptor", "test": "NK1 receptor test by the methods of WO 93/01165, pages 36 to 39", "assay_type": "binding, human", "conditions": "3(R) compound compared with its 3(S) epimer, Example 124", "procedure": "The exemplified compounds of this invention were tested by the methods set out at pages 36 to 39 of International Patent Specification No. WO 93/01165.", "data": [{"substance": "(3R,5R,6S)-3-[2-(2,2,-Difluoroethoxy)-5-(difluoromethoxy)phenyl]-6-phenyl-1-oxa-7-(tert-butoxycarbonyl)aza-spiro[4,5]decane [Example 214]", "values": [{"measurement": "potency relative to epimer", "value": "more potent"}]}]}
